In patent US7592345B2, “Piperazine and [1,4]diazepan derivatives as NK antagonists” (Hoffmann-La Roche Inc., priority 2007, dated 2009):

target: T1, recombinant human NK3 receptor (Homo sapiens, UniProt P29371); assay: [3H]SR142801 competition binding assay; details: [3H]SR142801, membranes from HEK293 cells transiently expressing recombinant human NK3 receptor; read-out: hNK3 Ki
T1 construct: expressed in transfected cells; host or cells: HEK293 cells (transient expression), membranes
T1 sequence (P29371 1-465): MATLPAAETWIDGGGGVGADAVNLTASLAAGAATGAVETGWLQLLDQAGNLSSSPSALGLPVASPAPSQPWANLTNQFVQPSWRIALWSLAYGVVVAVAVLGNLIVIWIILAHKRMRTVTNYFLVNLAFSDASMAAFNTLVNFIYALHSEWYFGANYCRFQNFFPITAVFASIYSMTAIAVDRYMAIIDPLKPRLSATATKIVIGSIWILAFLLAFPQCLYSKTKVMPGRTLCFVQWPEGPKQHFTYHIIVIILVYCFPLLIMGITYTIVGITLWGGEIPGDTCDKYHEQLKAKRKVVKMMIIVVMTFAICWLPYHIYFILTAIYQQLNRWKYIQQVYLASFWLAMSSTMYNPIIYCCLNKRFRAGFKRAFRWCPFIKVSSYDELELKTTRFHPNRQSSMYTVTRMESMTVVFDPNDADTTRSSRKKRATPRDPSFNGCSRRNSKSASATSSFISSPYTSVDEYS
Method in brief: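 Membranes from HEK293 cells transiently expressing human NK3 were incubated 75 min at RT with [3H]SR142801 at its KD and inhibitor (0.0003-10 μM) in Tris-HCl pH 7.4/MnCl2/phosphoramidon/BSA. Nonspecific binding used 10 μM SB222200. Ki from Hill-fitted IC50 via Cheng-Prusoff, duplicate determinations.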

Ki [nM] | Structure (SMILES)
107 | CC(CCN1CCCN(S(C)(=O)=O)CC1)(C(=O)NCc1ccc(C#N)cc1)c1ccc(Cl)c(Cl)c1 (stereo not drawn) [Example 124, N-(4-Cyano-benzyl)-2-(3,4-dichloro-phenyl)-4-(4-methanesulfonyl-[1,4]diazepan-1-yl)-2-methyl-butyramide]
78.4 | CN(Cc1cccc(C(F)(F)F)c1)C(=O)C(C)(CCN1CCN(S(C)(=O)=O)CC1)c1ccc(Cl)c(Cl)c1 (stereo not drawn) [Example 127, 2-(3,4-Dichloro-phenyl)-4-(4-methanesulfonyl-piperazin-1-yl)-2,N-dimethyl-N-(3-trifluoromethyl-benzyl)-butyramide]
186 | CC(CCN1CCN(S(C)(=O)=O)CC1)(C(=O)N[C@H](CO)c1ccc(Cl)cc1)c1ccc(Cl)c(Cl)c1 (stereo partly drawn) [Example 131, N-[(S)-1-(4-Chloro-phenyl)-2-hydroxy-ethyl]-2-(3,4-dichloro-phenyl)-4-(4-methanesulfonyl-piperazin-1-yl)-2-methyl-butyramide]
397 | CC(CCN1CCN(S(C)(=O)=O)CC1)(C(=O)N[C@H](CO)c1ccc(F)cc1)c1ccc(Cl)c(Cl)c1 (stereo partly drawn) [Example 133, 2-(3,4-Dichloro-phenyl)-N-[(S)-1-(4-fluoro-phenyl)-2-hydroxy-ethyl]-4-(4-methanesulfonyl-piperazin-1-yl)-2-methyl-butyramide]
196 | CC(CCN1CCN(S(C)(=O)=O)CC1)(C(=O)NC(c1ccc(F)cc1)C(F)(F)F)c1ccc(Cl)c(Cl)c1 (stereo not drawn) [Example 135, 2-(3,4-Dichloro-phenyl)-4-(4-methanesulfonyl-piperazin-1-yl)-2-methyl-N-[2,2,2-trifluoro-1-(4-fluoro-phenyl)-ethyl]-butyramide]

The remaining lines, values behind:

Structure (SMILES) | Ki [nM]
CN(Cc1ccc(-c2ccncc2)cc1)C(=O)C(C)(CCN1CCCN(S(C)(=O)=O)CC1)c1ccc(Cl)c(Cl)c1 (stereo not drawn) [Example 123, 2-(3,4-Dichloro-phenyl)-4-(4-methanesulfonyl-[1,4]diazepan-1-yl)-2,N-dimethyl-N-(4-pyridin-4-yl-benzyl)-butyramide] | 93.4
CN(Cc1ccc(C(F)(F)F)nc1)C(=O)C(C)(CCN1CCCN(S(C)(=O)=O)CC1)c1ccc(Cl)c(Cl)c1 (stereo not drawn) [Example 125, 2-(3,4-Dichloro-phenyl)-4-(4-methanesulfonyl-[1,4]diazepan-1-yl)-2,N-dimethyl-N-(6-trifluoromethyl-pyridin-3-ylmethyl)-butyramide] | 275
CC(CCN1CCCN(S(C)(=O)=O)CC1)(C(=O)NCc1ccc(C(F)(F)F)nc1)c1ccc(Cl)c(Cl)c1 (stereo not drawn) [Example 126, 2-(3,4-Dichloro-phenyl)-4-(4-methanesulfonyl-[1,4]diazepan-1-yl)-2-methyl-N-(6-trifluoromethyl-pyridin-3-ylmethyl)-butyramide] | 949
CC(CCN1CCN(S(C)(=O)=O)CC1)(C(=O)N[C@@H](CO)c1ccc(Cl)cc1)c1ccc(Cl)c(Cl)c1 (stereo partly drawn) [Example 130, N-[(R)-1-(4-Chloro-phenyl)-2-hydroxy-ethyl]-2-(3,4-dichloro-phenyl)-4-(4-methanesulfonyl-piperazin-1-yl)-2-methyl-butyramide] | 39.9
CC(CCN1CCN(S(C)(=O)=O)CC1)(C(=O)N[C@@H](CO)c1ccc(F)cc1)c1ccc(Cl)c(Cl)c1 (stereo partly drawn) [Example 132, 2-(3,4-Dichloro-phenyl)-N-[(R)-1-(4-fluoro-phenyl)-2-hydroxy-ethyl]-4-(4-methanesulfonyl-piperazin-1-yl)-2-methyl-butyramide] | 146
CC(NC(=O)C(C)(CCN1CCN(S(C)(=O)=O)CC1)c1ccc(Cl)c(Cl)c1)c1ccc(F)cc1 (stereo not drawn) [Example 134, 2-(3,4-Dichloro-phenyl)-N-[1-(4-fluoro-phenyl)-ethyl]-4-(4-methanesulfonyl-piperazin-1-yl)-2-methyl-butyramide] | 229
CC(CCN1CCN2C(CCS2(=O)=O)C1)(C(=O)N[C@@H](CO)c1ccc(Cl)cc1)c1ccc(Cl)c(Cl)c1 (stereo partly drawn) [Example 136, N-[(R)-1-(4-Chloro-phenyl)-2-hydroxy-ethyl]-2-(3,4-dichloro-phenyl)-4-(1,1-dioxo-hexahydro-1λ^6-thia-5,7a-diaza-inden-5-yl)-2-methyl-butyramide] | 15.4
CC(CCN1CCN2C(CCS2(=O)=O)C1)(C(=O)N[C@@H](CO)c1ccc(F)cc1)c1ccc(Cl)c(Cl)c1 (stereo partly drawn) [Example 137, 2-(3,4-Dichloro-phenyl)-4-(1,1-dioxo-hexahydro-1λ^6-thia-5,7a-diaza-inden-5-yl)-N-[(R)-1-(4-fluoro-phenyl)-2-hydroxy-ethyl]-2-methyl-butyramide] | 30.5

test system: not given; assay: not given; details: phase II trial; cited from earlier work

Structure (SMILES) | activity in the treatment of negative symptoms | activity on positive symptoms of schizophrenia
CC(=O)N(C)C1(c2ccccc2)CCN(CCC[C@]2(c3ccc(Cl)c(Cl)c3)CCCN(C(=O)c3ccccc3)C2)CC1 [SR 142,801, Osanetant] | inactive | active
